For one assay, the target named is T1, hsMTHFD1_DC (Homo sapiens, UniProt P11586).
T1 construct: hsMTHFD1 DC301; His-tag (TEV-cleavable, vector pHis-TEV); made in house; host or cells: E. coli BL21 (DE3)
T1 sequence (P11586 2-291 limits assumed): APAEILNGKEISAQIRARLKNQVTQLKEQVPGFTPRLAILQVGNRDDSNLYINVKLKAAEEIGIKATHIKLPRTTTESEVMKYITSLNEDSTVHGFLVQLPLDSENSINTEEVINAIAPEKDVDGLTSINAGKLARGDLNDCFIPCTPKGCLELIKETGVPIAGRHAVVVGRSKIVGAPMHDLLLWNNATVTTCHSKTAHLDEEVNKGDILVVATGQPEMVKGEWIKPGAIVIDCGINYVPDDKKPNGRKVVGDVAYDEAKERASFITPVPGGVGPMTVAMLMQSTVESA
The experiment in a line: hsMTHFD1_DC dehydrogenase (DH) enzyme assay. It counts as biochemical. The following applies: hsMTHFD1 DC301. Here is the method: (§1) (6R,S)-5,10-Methylene-5,6,7,8-tetrahydrofolic acid ((6R,S)-5,10-CH2-THF) calcium salt and (6R,S)-5,10-Methenyl-5,6,7,8-tetrahydrofolic acid ((6R,S)-5,10-CH=THF) chloride were purchased from Schircks Laboratories (Bauma, Switzerland) and used as substrates for FolD dehydrogenase and cyclohydrolase enzyme assays, respectively. Only the R-isomer, which accounts for 50% of (6R,S)-5,10-CH2-THF and (6R,S)-5,10-CH=THF, respectively, is used by the enzyme. (6R,S)-5,10-CH2-THF was dissolved in N2-spargeled basic buffer (50 mM Tris-HCl (pH 8.0), 100 mM β-mercaptoethanol) as described by Varshney et al.[25]. (6R,S)-5,10-CH=THF was dissolved in DMSO as a 100 mM stock solution.
Because FolD is a bifunctional enzyme, dehydrogenase and cyclohydrolase activities were determined for FolD enzyme kinetics, respectively. The dehydrogenase activity of FolD was assayed for its substrate 5,10-CH2-THF and cofactor NADP^+ (in the case of MTHFD2, NAD^+ was used as the cofactor) based on monitoring the formation of 5,10-CH=THF, while the cyclohydrolase activity of FolD was determined for its substrate 5,10-CH=THF by monitoring the hydrolysis of […]. The enzyme kinetics for the dehydrogenase activity of all FolDs except hsMTHFD1_DC were determined at 30 °C in 50 mM Tris-HCl (pH 7.5), 30 mM β-mercaptoethanol. The hsMTHFD1_DC dehydrogenase activity was measured in 25 mM MOPS (pH 7.3), 30 mM β-mercaptoethanol at 30 °C. To measure the enzyme kinetic constants for 5,10-CH2-THF, for example in the case of ecFolD, the NADP concentration was fixed at 1 mM and the concentration of 5,10-CH2-THF varied from 5 to 1500 μM (R-isomer). Similarly, to measure the kinetic constants of ecFolD for NADP^+, the concentration of 5,10-CH2-THF (R-isomer) was fixed at 1 mM and the concentration of NADP^+ varied from 10 to 1500 μM. For different FolDs, the varied concentration range of substrates could be different. […] To monitor the formation of 5,10-CH=THF, the absorbance of the reaction mixture was monitored at 350 nm in micro UV cuvettes (BRAND, Essex, Connecticut, USA). The concentration of 5,10-CH=THF produced in the reaction was determined using an extinction co-efficient of 0.0249 μM^−1 cm^−1. […] The consumption of 5,10-CH=THF was measured by recording the absorbance of the reactions at 355 nm using the TECAN Infinite 200 PRO equipped with a monochromator. […] The inhibition constants (K i) of carolacton on FolD were determined by measuring the apparent K m when adding certain amounts of carolacton to the enzyme reactions. […] To compare the inhibition effects of carolacton between the different FolDs, the half maximal inhibitory concentration (IC50) of carolacton on the same amount of enzyme was determined for FolDs involved in this study. […]

A further assay deals with T2, ecFolD Q98H (Escherichia coli, UniProt P24186, Q98H).
T2 construct: His-tag (TEV-cleavable, vector pHis-TEV); made in house; host or cells: E. coli BL21 (DE3)
Kind of assay: ecFolD Q98H mutant dehydrogenase (DH) enzyme assay. The class given is biochemical, E. coli. The procedure: as §1
Because FolD is a bifunctional enzyme, dehydrogenase and cyclohydrolase activities were determined for FolD enzyme kinetics, respectively. The dehydrogenase activity of FolD was assayed for its substrate 5,10-CH2-THF and cofactor NADP^+ (in the case of MTHFD2, NAD^+ was used as the cofactor) based on monitoring the formation of 5,10-CH=THF, while the cyclohydrolase activity of FolD was determined for its substrate 5,10-CH=THF by monitoring the hydrolysis of […]. The enzyme kinetics for the dehydrogenase activity of all FolDs except hsMTHFD1_DC were determined at 30 °C in 50 mM Tris-HCl (pH 7.5), 30 mM β-mercaptoethanol. […]

For the next assay, the system named is KB-V.1. The experiment in a line: Cytotoxicity screening, KB-V.1 (MTT). It counts as cell-based, human. The conditions noted are these: for EC50: MDR (Pgp-overexpressing) cell line, 5 d treatment, MTT. Here is the method:
Half maximal effective concentrations (EC50) on human cancer cell lines were determined as described elsewhere. Human cancer cell lines were maintained as recommended by the depositor (German Collection of Microorganisms and Cell Cultures, DSMZ) and were treated for 5 d with carolacton in serial dilution. The viability of adherent cell types, HCT-116 (ACC 581), KB-3.1 (ACC-158) and KB-V.1 (ACC-149) was assessed by the addition of MTT tetrazolium salt and absorbance measurement at 570 nm. Histiocytic lymphoma U-937 cells (ACC-5) were maintained in RPMI 1640 medium and transferred into folate-free medium prior to the assay. Cell viability was determined by measuring alamar blue fluorescence emission at 590 nm. The values were referenced and EC50 values were determined by sigmoidal curve fitting. The cell lines KB-3.1 and KB-V.1 are originally derived from HeLa, whereas the latter is an MDR subclone of KB-3.1. They were used to directly compare the activity of carolacton on an mdr1 overexpressing and a sensitive cell line.

Like-named read-outs stand apart in the source and are kept apart here. Where only a bound is given, the exact number is not on record here.

With `CO[C@H](CC(=O)O)[C@@H](C)C(=O)[C@H](C)/C=C(\C)[C@H]1OC(=O)[C@H](O)[C@H](O)/C=C/[C@H](C)CCC[C@@H]1C` [carolacton], the concentration for half-maximal inhibition (IC50) on hsMTHFD1_DC (10 nM enzyme, read-out: IC50, carolacton inhibition on DH activity) stood at 0.038 µM; on ecFolD Q98H, 0.313 µM. Moreover, the concentration for an effect of 80% (IC80) at hsMTHFD1_DC (10 nM enzyme, read-out: IC80, carolacton inhibition on DH activity) was found to be 0.0776 µM; at ecFolD Q98H (read-out: IC80, carolacton inhibition on DH activity), 1.93 µM. Further, the Ki at hsMTHFD1_DC (vs 5,10-CH2-THF, read-out: Ki (5,10-CH2-THF), carolacton inhibition on DH activity) turned out to be 0.00593 µM; at hsMTHFD1_DC (vs NADP+, read-out: Ki (NADP+), carolacton inhibition on DH activity), 0.0587 µM. Further, the EC50 was determined as 42 µM in the assay with KB-V.1 (Homo sapiens, KB-V1, 120 h) and 41.8 ± 14.5 µM with KB-V.1. For the same compound, the Maximum inhibition with KB-V.1 (inhibition of cell growth, 5 d) is on record as above 80%.
